# Source: patent US7365095B2, “Chromane and chromene derivatives and uses thereof” (Wyeth, priority 2005, dated 2008)
# Counter-ions that a name gives are not always drawn.
# Tests used:
# human 5-HT2C receptor = molecular target: T1, human 5-HT2C receptor (Homo sapiens, UniProt P28335); assay: calcium mobilization (FLIPR) in CHO cells stably expressing the human 5-HT2C receptor; type: cell-based; details: for Emax: CHO, read-out: 5-HT2C Function EMax (%); for EC50: calcium mobilization, read-out: 5-HT2C Function EC50
# T1 sequence (P28335 33-458): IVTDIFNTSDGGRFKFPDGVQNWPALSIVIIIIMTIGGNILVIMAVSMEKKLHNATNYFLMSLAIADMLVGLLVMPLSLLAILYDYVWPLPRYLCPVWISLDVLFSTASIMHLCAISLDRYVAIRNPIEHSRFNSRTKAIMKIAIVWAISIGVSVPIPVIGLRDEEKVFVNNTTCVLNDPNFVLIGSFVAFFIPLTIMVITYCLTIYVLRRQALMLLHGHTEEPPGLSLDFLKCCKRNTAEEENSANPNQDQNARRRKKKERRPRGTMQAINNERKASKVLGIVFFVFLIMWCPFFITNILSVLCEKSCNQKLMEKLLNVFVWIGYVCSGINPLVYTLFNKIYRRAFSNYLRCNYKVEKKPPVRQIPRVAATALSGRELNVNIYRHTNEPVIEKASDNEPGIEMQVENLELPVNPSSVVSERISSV
# [1] = molecular target: T2, human 5-hydroxytryptamine-2C (h5-HT2C) receptor (Homo sapiens, UniProt P28335); assay: [125I]DOI binding to membranes of CHO cells expressing h5-HT2C receptor; details: read-out: 5-HT2C Binding Ki avg
# T2 construct: expressed in transfected cells; host or cells: CHO (Chinese Hamster Ovary) cells; membrane preparation
# T2 sequence (P28335 33-458): T1 sequence (P28335 33-458)
SMILES,Emax (human 5-HT2C receptor) [%],EC50 (human 5-HT2C receptor) [nM],Ki [1] [nM]
"NC[C@H]1C=Cc2cccc(-c3c(Cl)cccc3Cl)c2O1 [Compound 60, {[(2R)-8-(2,6-dichlorophenyl)-2H-chromen-2-yl]methyl}amine hydrochloride]",100,< 50,≤ 10
"CNC[C@H]1CCc2cc(F)cc(-c3ccccc3Cl)c2O1 [Compound 39, {[(2R)-8-(2-chlorophenyl)-6-fluoro-3,4-dihydro-2H-chromen-2-yl]methyl}methylamine hydrochloride]",100,< 50,≤ 10
"CNC[C@H]1CCc2cc(F)cc(-c3cccnc3)c2O1 [Compound 44, {[(2R)-6-fluoro-8-pyridin-3-yl-3,4-dihydro-2H-chromen-2-yl]methyl}methylamine hydrochloride]",80,> 200,10 to 50
"NC[C@H]1CCc2cccc(-c3ccccc3)c2O1 [Compound 14, {[(2R)-8-phenyl-3,4-dihydro-2H-chromen-2-yl]methyl}amine hydrochloride]",80,> 200,10 to 50
"NC[C@@H]1CCc2cc(F)cc(-c3ccccc3Cl)c2O1 [Compound 51, {[(2S)-8-(2-chlorophenyl)-6-fluoro-3,4-dihydro-2H-chromen-2-yl]methyl}amine hydrochloride]",80,< 50,10 to 50
"CNCC1C=Cc2cc(F)cc(-c3ccccc3Cl)c2O1 (stereo not drawn) [Compound 61, {[8-(2-chlorophenyl)-6-fluoro-2H-chromen-2-yl]methyl}methylamine hydrochloride]",90,< 50,≤ 10
"Cc1ccccc1-c1cc(F)cc2c1O[C@H](CN)CC2 [Compound 53, {[(2S)-6-fluoro-8-(2-methylphenyl)-3,4-dihydro-2H-chromen-2-yl]methyl}amine hydrochloride]",70,50 to 200,10 to 50
"NC[C@@H]1CCc2cccc(-c3ccccc3Cl)c2O1 [Compound 27, {[(2S)-8-(2-chlorophenyl)-3,4-dihydro-2H-chromen-2-yl]methyl}amine hydrochloride]",80,50 to 200,10 to 50
"NC[C@@H]1CCc2cccc(-c3cc(Cl)ccc3Cl)c2O1 [Compound 28, {[(2S)-8-(2,5-dichlorophenyl)-3,4-dihydro-2H-chromen-2-yl]methyl}amine hydrochloride]",100,50 to 200,10 to 50
"COc1ccccc1-c1cccc2c1O[C@@H](CN)CC2 [Compound 15, {[(2R)-8-(2-methoxyphenyl)-3,4-dihydro-2H-chromen-2-yl]methyl}amine hydrochloride]",90,< 50,≤ 10
"COc1ccc(-c2cccc3c2O[C@@H](CN)CC3)c(OC)c1 [Compound 16, {[(2R)-8-(2,4-dimethoxyphenyl)-3,4-dihydro-2H-chromen-2-yl]methyl}amine hydrochloride]",100,< 50,≤ 10
"NC[C@H]1CCc2cc(F)cc(-c3cc(Cl)ccc3Cl)c2O1 [Compound 46, {[(2R)-8-(2,5-dichlorophenyl)-6-fluoro-3,4-dihydro-2H-chromen-2-yl]methyl}amine hydrochloride]",90,> 200,10 to 50
"CNC[C@@H]1CCc2cccc(-c3ccccc3Cl)c2O1 [Compound 19, {[(2S)-8-(2-chlorophenyl)-3,4-dihydro-2H-chromen-2-yl]methyl}methylamine hydrochloride]",80,50 to 200,≤ 10
"NC[C@@H]1CCc2cccc(-c3ccc(Cl)cc3Cl)c2O1 [Compound 29, {[(2S)-8-(2,4-dichlorophenyl)-3,4-dihydro-2H-chromen-2-yl]methyl}amine hydrochloride]",80,> 200,10 to 50
"NC[C@H]1CCc2cccc(-c3cc(Cl)ccc3Cl)c2O1 [Compound 12, {[(2R)-8-(2,5-dichlorophenyl)-3,4-dihydro-2H-chromen-2-yl]methyl}amine hydrochloride]",90,50 to 200,10 to 50
"NCC1CCc2cc(F)cc(-c3ccccc3Cl)c2O1 (stereo not drawn) [Compound 37, {[8-(2-chlorophenyl)-6-fluoro-3,4-dihydro-2H-chromen-2-yl]methyl}amine hydrochloride]",100,< 50,≤ 10
"NC[C@H]1CCc2cccc(-c3ccc(Cl)cc3Cl)c2O1 [Compound 13, {[(2R)-8-(2,4-dichlorophenyl)-3,4-dihydro-2H-chromen-2-yl]methyl}amine hydrochloride]",100,< 50,≤ 10

SMILES,Emax (human 5-HT2C receptor) [%],EC50 (human 5-HT2C receptor) [nM],Ki [1] [nM]
"NC[C@H]1CCc2cc(F)cc(-c3ccccc3)c2O1 [Compound 48, {[(2R)-6-fluoro-8-phenyl-3,4-dihydro-2H-chromen-2-yl]methyl}amine hydrochloride]",90,50 to 200,≤ 10
"CNC[C@@H]1CCc2cccc(-c3ccccc3C)c2O1 [Compound 25, N-methyl-1-[(2S)-8-(2-methylphenyl)-3,4-dihydro-2H-chromen-2-yl]methanamine hydrochloride]",90,> 200,10 to 50
"COc1ccccc1-c1cc(F)cc2c1O[C@@H](CN)C=C2 [Compound 65, {[(2R)-6-fluoro-8-(2-methoxyphenyl)-2H-chromen-2-yl]methyl}amine hydrochloride]",80,< 50,≤ 10
"CNC[C@H]1CCc2cc(F)cc(-c3ccccc3)c2O1 [Compound 42, {[(2R)-6-fluoro-8-phenyl-3,4-dihydro-2H-chromen-2-yl]methyl}methylamine hydrochloride]",90,50 to 200,≤ 10
"CNC[C@H]1CCc2cccc(-c3ccc(OC)cc3OC)c2O1 [Compound 7, N-{[(2R)-8-(2,4-dimethoxyphenyl)-3,4-dihydro-2H-chromen-2-yl]methyl}-N-methylamine hydrochloride]",90,< 50,≤ 10
"NC[C@H]1C=Cc2cc(F)cc(-c3ccccc3Cl)c2O1 [Compound 64, {[(2R)-8-(2-chlorophenyl)-6-fluoro-2H-chromen-2-yl]methyl}amine hydrochloride]",90,< 50,≤ 10
"CNC[C@H]1CCc2cccc(-c3ccccc3OC)c2O1 [Compound 6, N-{[(2R)-8-(2-methoxyphenyl)-3,4-dihydro-2H-chromen-2-yl]methyl}-N-methylamine hydrochloride]",90,< 50,≤ 10
"CNC[C@H]1CCc2cccc(-c3c(Cl)cccc3Cl)c2O1 [Compound 35, {[(2R)-8-(2,6-dichlorophenyl)-3,4-dihydro-2H-chromen-2-yl]methyl}methylamine hydrochloride]",90,< 50,≤ 10
"NC[C@H]1CCc2cc(F)cc(-c3c(Cl)cccc3Cl)c2O1 [Compound 57, {[(2R)-8-(2,6-dichlorophenyl)-6-fluoro-3,4-dihydro-2H-chromen-2-yl]methyl}amine hydrochloride]",80,< 50,≤ 10
"NC[C@H]1CCCc2cccc(-c3c(Cl)cccc3Cl)c2O1 [Compound 67, {[(2R)-9-(2,6-dichlorophenyl)-2,3,4,5-tetrahydro-1-benzoxepin-2-yl]methyl}amine hydrochloride]",80,50 to 200,10 to 50
"CCNC[C@H]1CCc2cc(F)cc(-c3c(Cl)cccc3Cl)c2O1 [Compound 58, N-{[(2R)-8-(2,6-dichlorophenyl)-6-fluoro-3,4-dihydro-2H-chromen-2-yl]methyl}ethanamine hydrochloride]",60,< 50,≤ 10
"NC[C@H]1CCCc2cc(F)cc(-c3c(Cl)cccc3Cl)c2O1 [Compound 68, {[(2R)-9-(2,6-dichlorophenyl)-7-fluoro-2,3,4,5-tetrahydro-1-benzoxepin-2-yl]methyl}amine hydrochloride]",80,50 to 200,10 to 50
"CNC[C@H]1CCc2cc(F)cc(-c3cc(Cl)ccc3Cl)c2O1 [Compound 40, {[(2R)-8-(2,5-dichlorophenyl)-6-fluoro-3,4-dihydro-2H-chromen-2-yl]methyl}methylamine hydrochloride]",90,< 50,≤ 10
"CNC[C@H]1CCc2cc(F)cc(-c3ccccc3C)c2O1 [Compound 43, {[(2R)-6-fluoro-8-(2-methylphenyl)-3,4-dihydro-2H-chromen-2-yl]methyl}methylamine hydrochloride]",90,50 to 200,≤ 10
"CNC[C@@H]1CCc2cccc(-c3ccc(OC)cc3OC)c2O1 [Compound 24, {[(2S)-8-(2,4-dimethoxyphenyl)-3,4-dihydro-2H-chromen-2-yl]methyl}methylamine hydrochloride]",100,50 to 200,10 to 50
"NC[C@H]1C=Cc2cc(F)cc(-c3c(Cl)cccc3Cl)c2O1 [Compound 66, {[(2R)-8-(2,6-dichlorophenyl)-6-fluoro-2H-chromen-2-yl]methyl}amine hydrochloride]",90,< 50,≤ 10
